Here are results for ten compounds from patent publication US20240368135A1 (VERTEX PHARMACEUTICALS INCORPORATED, priority 2021, published 2024).

The structures appear in SMILES notation.

For orientation: IC50 means the concentration that gives 50% inhibition.

human NaV 1.8, sequence (Q9Y5Y9 126-399 limits assumed): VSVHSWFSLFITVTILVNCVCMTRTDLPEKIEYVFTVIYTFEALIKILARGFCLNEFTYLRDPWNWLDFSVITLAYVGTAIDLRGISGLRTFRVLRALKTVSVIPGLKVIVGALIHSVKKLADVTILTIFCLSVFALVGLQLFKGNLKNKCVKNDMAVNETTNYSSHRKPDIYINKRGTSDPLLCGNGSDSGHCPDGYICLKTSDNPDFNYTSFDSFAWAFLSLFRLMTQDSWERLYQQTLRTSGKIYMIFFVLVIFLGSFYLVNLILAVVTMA
human NaV 1.8, sequence (Q9Y5Y9 660-890 limits assumed): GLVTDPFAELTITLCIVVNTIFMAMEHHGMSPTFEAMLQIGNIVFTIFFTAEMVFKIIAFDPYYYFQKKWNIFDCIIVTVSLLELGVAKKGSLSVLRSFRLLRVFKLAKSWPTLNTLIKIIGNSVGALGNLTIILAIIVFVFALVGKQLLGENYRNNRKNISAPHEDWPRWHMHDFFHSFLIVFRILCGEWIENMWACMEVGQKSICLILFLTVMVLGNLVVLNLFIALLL
human NaV 1.8, sequence (Q9Y5Y9 1148-1722 limits assumed): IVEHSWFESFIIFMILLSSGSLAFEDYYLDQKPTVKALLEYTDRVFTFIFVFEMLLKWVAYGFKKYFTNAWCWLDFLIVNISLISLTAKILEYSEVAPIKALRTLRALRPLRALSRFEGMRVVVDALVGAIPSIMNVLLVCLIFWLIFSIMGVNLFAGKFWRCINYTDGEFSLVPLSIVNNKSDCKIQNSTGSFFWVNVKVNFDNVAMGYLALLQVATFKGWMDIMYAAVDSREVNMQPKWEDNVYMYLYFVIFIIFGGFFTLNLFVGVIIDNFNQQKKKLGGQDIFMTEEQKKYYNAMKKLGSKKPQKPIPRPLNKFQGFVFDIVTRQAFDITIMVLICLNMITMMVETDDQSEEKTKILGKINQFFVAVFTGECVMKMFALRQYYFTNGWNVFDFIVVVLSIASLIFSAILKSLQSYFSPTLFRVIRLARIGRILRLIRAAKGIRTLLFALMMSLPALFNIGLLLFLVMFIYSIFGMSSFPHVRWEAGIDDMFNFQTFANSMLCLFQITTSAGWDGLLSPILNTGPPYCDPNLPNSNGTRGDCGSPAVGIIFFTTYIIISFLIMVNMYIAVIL

The experiment concerns the target human NaV 1.8 (Homo sapiens, UniProt Q9Y5Y9). The experiment can be described thus: E-VIPR assay detecting and measuring NaV inhibition properties. The experiment is classed as cell-based. Particulars: HEK cells expressing truncated human NaV 1.8; no human serum; read-out: IC50 in the E-VIPR Assay. An outline of the steps:
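HEK cells expressing truncated, fully active human NaV1.8, with KIR2.1 BacMam co-transduction, were loaded with CC2-DMPE/DiSBAC6(3) voltage-sensing dyes for 20 min at room temperature. Compounds were tested in 11-point 3-fold dilutions (300 nM top final), optionally with 25% human serum, under electrical stimulation with FRET read-out.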
In the case of `COc1c([C@H]2[C@H](C(=O)Nc3cncc(S(=O)(=O)N4CCN(C)CC4)c3)O[C@@](C)(C(F)(F)F)[C@H]2C)ccc(F)c1F` [Compound 380, (2R,3S,4S,5R)-3-(3,4-difluoro-2-methoxyphenyl)-4,5-dimethyl-N-(5-((4-methylpiperazin-1-yl)sulfonyl)pyridin-3-yl)-5-(trifluoromethyl)tetrahydrofuran-2-carboxamide], the IC50 fell in the range of 0.01 to 0.1 µM.

As to `COc1c([C@@H]2[C@@H](C(=O)Nc3ccnc(N4CCN(C)CC4=O)c3)O[C@](C)(C(F)(F)F)[C@@H]2C)ccc(F)c1C(F)F` (single isomer, unassigned) [Compound 163], the IC50 is 0.1 to 1 µM.

For `COc1c([C@H]2[C@H](C(=O)Nc3ccnc(C4(N)COC4)n3)O[C@@](C)(C(F)(F)F)[C@H]2C)ccc(F)c1F` [Compound 310, (2R,3S,4S,5R)-N-[2-(3-aminooxetan-3-yl)pyrimidin-4-yl]-3-(3,4-difluoro-2-methoxy-phenyl)-4,5-dimethyl-5-(trifluoromethyl)tetrahydrofuran-2-carboxamide], the IC50 lay within 0.01 to 0.1 µM.

In the case of `COc1c([C@H]2[C@H](C(=O)Nc3cnc(C(C)(C)O)nc3)O[C@@](C)(C(F)(F)F)[C@H]2C)ccc(F)c1F` [Compound 390, (2R,3S,4S,5R)-3-(3,4-difluoro-2-methoxyphenyl)-N-(2-(2-hydroxypropan-2-yl)pyrimidin-5-yl)-4,5-dimethyl-5-(trifluoromethyl)tetrahydrofuran-2-carboxamide], the IC50 fell in the range of 0.01 to 0.1 µM.

For the compound `Cc1nn(C(F)F)cc1NC(=O)[C@@H]1O[C@@](C)(C(F)(F)F)[C@@H](C)[C@H]1c1ccc(F)c(F)c1CCO` [Compound 677, (2R,3S,4S,5R)-3-(3,4-difluoro-2-(2-hydroxyethyl)phenyl)-N-(1-(difluoromethyl)-3-methyl-1H-pyrazol-4-yl)-4,5-dimethyl-5-(trifluoromethyl)tetrahydrofuran-2-carboxamide], the IC50 was 0.01 to 0.1 µM.

As to `COc1c(C2C(C(=O)Nc3ccnc(C(O)CO)c3)OC(C)(C(F)(F)F)C2C)ccc(F)c1F` (single isomer, unassigned) [Compound 43, 3-(3,4-difluoro-2-methoxy-phenyl)-N-[2-(1,2-dihydroxyethyl)-4-pyridyl]-4,5-dimethyl-5-(trifluoromethyl)tetrahydrofuran-2-carboxamide], the IC50 is no less than 1 µM.

On to `COc1c([C@H]2[C@H](C(=O)Nc3cn(S(C)(=O)=O)nc3C)O[C@@](C)(C(F)(F)F)[C@H]2C)ccc(F)c1F` [Compound 180, (2R,3S,4S,5R)-3-(3,4-difluoro-2-methoxyphenyl)-4,5-dimethyl-N-(3-methyl-1-(methylsulfonyl)-1H-pyrazol-4-yl)-5-(trifluoromethyl)tetrahydrofuran-2-carboxamide], for which the IC50 was less than 0.01 µM.

With `COc1c([C@H]2[C@H](C(=O)NCc3ccc4ncccc4c3)O[C@@](C)(C(F)(F)F)[C@H]2C)ccc(F)c1F` [Compound 294, (2R,3S,4S,5R)-3-(3,4-difluoro-2-methoxyphenyl)-4,5-dimethyl-N-(quinolin-6-ylmethyl)-5-(trifluoromethyl)tetrahydrofuran-2-carboxamide], the IC50 is no less than 1 µM.

For `CC1C(c2ccc(F)c(F)c2OCCO)C(C(=O)Nc2ncn(C3CC(F)C3)n2)OC1(C)C(F)(F)F` [Compound 554, (2R,3S,4S,5R)-3-(3,4-difluoro-2-(2-hydroxyethoxy)phenyl)-N-(1-((15,3S)-3-fluorocyclobutyl)-1H-1,2,4-triazol-3-yl)-4,5-dimethyl-5-(trifluoromethyl)tetrahydrofuran-2-carboxamide], the IC50 is no less than 1 µM.

As to `COc1c([C@H]2[C@H](C(=O)Nc3ccc(-c4ncc[nH]4)nc3)O[C@@](C)(C(F)(F)F)[C@H]2C)ccc(F)c1F` [Compound 193, (2R,3S,4S,5R)-N-(6-(1H-imidazol-2-yl)pyridin-3-yl)-3-(3,4-difluoro-2-methoxyphenyl)-4,5-dimethyl-5-(trifluoromethyl)tetrahydrofuran-2-carboxamide], the IC50 was 0.01 to 0.1 µM.
